Converted amounts (≈) assume the structure as drawn.
Legend:
Assay type in all cases: physicochemical
Solubility in water = test: Solubility in water
[1] = Solubility in the amide-based surfactant DMDA (Met10u)
[2] = Thermal stability (decarboxylation) of CBDA; details: in Met10u solution
[3] = Solubility of CBDA in mineral oil; details: oil or lipid, under certain conditions

C=C(C)[C@@H]1CCC(C)=C[C@H]1c1c(O)cc(CCCCC)c(C(=O)O)c1O [CBDA, Δ(9)-tetrahydrocannabidiolic acid]
solubility of CBDA in water (Solubility in water; temperature of 4 degrees Celsius or lower, pH 4 or lower): below 20 micrograms per milliliter
solubility of CBDA in water (Solubility in water; temperature of 70 degrees Celsius or higher, pH of 10 or higher): over 20 milligrams per milliliter
solubility of CBDA in Met10u ([1]; at 0 C): 1%
solubility of CBDA in Met10u ([1]; at 60 C): 100%
solubility in DMDA ([1]; at 70 C): over 1000 mg/ml DMDA
temperature at which CBDA begins to lose its carboxylic moiety (decarboxylation) and become CBD [2]: at least 130 C
solubility [3]: ~6000 µg/mL (≈ 16.7 mM)

From patent US12264296B2, “Compositions that contain lipophilic plant material and surfactant, and related methods” (priority 2020, dated 2025)
